Measured values: ChEMBL document CHEMBL4373693, “Virtual Screening Approach and Investigation of Structure-Activity Relationships To Discover Novel Bacterial Topoisomerase Inhibitors Targeting Gram-Positive and Gram-Negative Pathogens” (J Med Chem, 2019)
In brackets after ≈: the same amount, converted by molar mass.

Assays:
DNA gyrase subunit A [1] = biological target: DNA gyrase subunit A (Staphylococcus aureus, UniProt P20831); assay: Inhibition of Staphylococcus aureus ATCC 29213 DNA gyrase A assessed as reduction in enzyme-mediated supercoiling of relaxed pBR322 DNA by ethidium bromide staining based gel electrophoresis method
DNA gyrase subunit A (Staphylococcus aureus, UniProt P20831), sequence (P20831 whole entry): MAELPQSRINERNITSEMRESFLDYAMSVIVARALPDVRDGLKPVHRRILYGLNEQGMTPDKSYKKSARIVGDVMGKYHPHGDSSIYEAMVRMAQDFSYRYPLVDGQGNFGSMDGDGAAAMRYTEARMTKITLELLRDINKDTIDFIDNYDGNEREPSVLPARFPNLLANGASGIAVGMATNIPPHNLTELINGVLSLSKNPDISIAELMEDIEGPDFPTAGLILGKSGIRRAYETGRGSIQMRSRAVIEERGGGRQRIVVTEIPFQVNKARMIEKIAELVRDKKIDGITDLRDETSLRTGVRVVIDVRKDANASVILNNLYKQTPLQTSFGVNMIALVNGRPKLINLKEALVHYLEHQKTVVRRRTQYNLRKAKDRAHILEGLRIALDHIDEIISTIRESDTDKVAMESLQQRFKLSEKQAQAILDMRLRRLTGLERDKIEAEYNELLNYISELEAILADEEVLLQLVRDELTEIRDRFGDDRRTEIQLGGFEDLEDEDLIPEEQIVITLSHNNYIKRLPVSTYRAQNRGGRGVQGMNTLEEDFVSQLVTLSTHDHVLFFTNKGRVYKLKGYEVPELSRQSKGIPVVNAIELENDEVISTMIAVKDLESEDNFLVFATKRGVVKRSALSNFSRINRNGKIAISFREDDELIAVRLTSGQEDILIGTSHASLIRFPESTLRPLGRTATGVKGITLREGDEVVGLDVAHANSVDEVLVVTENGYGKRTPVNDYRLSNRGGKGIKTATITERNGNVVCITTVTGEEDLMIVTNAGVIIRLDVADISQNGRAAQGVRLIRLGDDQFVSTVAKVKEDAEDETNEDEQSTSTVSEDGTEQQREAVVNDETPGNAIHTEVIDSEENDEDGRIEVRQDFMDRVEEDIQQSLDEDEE

[2] = biological target: T1, DNA topoisomerase 4 subunit A (Escherichia coli K-12, UniProt P0AFI2); assay: Inhibition of Escherichia coli ATCC 25922 DNA topoisomerase 4 subunit ParC assessed as reduction in decatenation of kinetoplast DNA incubated for 30 mins by ethidium bromide staining based gel electrophoresis method
T1 sequence (P0AFI2 whole entry): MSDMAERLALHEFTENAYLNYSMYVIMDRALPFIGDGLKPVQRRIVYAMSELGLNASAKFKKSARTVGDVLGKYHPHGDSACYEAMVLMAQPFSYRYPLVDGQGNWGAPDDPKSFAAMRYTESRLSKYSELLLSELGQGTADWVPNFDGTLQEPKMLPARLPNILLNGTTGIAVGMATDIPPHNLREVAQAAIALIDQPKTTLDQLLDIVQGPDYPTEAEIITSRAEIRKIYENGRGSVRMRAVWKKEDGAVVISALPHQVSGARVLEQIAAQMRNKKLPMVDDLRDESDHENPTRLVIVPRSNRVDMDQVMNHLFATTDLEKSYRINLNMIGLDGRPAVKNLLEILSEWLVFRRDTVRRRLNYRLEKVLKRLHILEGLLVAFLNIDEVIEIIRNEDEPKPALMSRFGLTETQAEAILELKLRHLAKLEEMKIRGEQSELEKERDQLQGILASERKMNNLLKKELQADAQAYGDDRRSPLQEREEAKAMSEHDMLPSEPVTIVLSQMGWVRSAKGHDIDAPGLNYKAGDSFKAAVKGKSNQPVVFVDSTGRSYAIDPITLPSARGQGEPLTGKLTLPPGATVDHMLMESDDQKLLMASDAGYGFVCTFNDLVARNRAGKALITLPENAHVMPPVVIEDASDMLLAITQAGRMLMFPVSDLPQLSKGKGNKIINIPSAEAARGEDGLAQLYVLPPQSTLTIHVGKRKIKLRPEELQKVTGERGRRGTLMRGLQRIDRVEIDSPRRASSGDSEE

[3] = biological target: DNA topoisomerase 4 subunit A (Staphylococcus aureus, UniProt P0C1U9); assay: Inhibition of Staphylococcus aureus ATCC 29213 DNA topoisomerase 4 subunit ParC assessed as reduction in decatenation of kinetoplast DNA incubated for 30 mins by ethidium bromide staining based gel electrophoresis method
DNA topoisomerase 4 subunit A (Staphylococcus aureus, UniProt P0C1U9), sequence (P0C1U9 whole entry): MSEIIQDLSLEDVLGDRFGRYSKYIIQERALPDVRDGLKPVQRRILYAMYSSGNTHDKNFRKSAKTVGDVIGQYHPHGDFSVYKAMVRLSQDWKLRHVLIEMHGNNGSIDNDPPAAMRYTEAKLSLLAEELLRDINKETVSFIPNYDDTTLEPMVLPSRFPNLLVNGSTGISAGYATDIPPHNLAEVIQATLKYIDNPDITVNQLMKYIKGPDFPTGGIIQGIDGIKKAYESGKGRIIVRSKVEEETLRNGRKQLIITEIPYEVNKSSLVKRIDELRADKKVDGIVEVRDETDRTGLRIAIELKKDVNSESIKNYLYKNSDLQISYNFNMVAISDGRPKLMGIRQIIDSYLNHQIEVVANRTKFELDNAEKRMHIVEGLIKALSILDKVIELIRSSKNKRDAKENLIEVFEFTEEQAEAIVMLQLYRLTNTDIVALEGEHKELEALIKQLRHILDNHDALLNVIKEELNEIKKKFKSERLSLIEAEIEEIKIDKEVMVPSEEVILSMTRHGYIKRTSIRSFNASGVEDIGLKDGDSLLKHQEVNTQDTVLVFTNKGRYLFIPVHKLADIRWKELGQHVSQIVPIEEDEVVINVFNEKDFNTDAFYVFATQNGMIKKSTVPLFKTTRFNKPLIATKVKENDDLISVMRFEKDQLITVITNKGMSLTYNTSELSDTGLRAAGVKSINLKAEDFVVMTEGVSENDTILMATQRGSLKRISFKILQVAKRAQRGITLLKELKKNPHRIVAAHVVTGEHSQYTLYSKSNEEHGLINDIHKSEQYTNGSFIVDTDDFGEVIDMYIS

DNA gyrase subunit A [4] = biological target: DNA gyrase subunit A (Escherichia coli K-12, UniProt P0AES4); assay: Inhibition of Escherichia coli ATCC 25922 DNA gyrase A assessed as reduction in enzyme-mediated supercoiling of relaxed pBR322 DNA by ethidium bromide staining based gel electrophoresis method
DNA gyrase subunit A (Escherichia coli K-12, UniProt P0AES4), sequence (P0AES4 whole entry): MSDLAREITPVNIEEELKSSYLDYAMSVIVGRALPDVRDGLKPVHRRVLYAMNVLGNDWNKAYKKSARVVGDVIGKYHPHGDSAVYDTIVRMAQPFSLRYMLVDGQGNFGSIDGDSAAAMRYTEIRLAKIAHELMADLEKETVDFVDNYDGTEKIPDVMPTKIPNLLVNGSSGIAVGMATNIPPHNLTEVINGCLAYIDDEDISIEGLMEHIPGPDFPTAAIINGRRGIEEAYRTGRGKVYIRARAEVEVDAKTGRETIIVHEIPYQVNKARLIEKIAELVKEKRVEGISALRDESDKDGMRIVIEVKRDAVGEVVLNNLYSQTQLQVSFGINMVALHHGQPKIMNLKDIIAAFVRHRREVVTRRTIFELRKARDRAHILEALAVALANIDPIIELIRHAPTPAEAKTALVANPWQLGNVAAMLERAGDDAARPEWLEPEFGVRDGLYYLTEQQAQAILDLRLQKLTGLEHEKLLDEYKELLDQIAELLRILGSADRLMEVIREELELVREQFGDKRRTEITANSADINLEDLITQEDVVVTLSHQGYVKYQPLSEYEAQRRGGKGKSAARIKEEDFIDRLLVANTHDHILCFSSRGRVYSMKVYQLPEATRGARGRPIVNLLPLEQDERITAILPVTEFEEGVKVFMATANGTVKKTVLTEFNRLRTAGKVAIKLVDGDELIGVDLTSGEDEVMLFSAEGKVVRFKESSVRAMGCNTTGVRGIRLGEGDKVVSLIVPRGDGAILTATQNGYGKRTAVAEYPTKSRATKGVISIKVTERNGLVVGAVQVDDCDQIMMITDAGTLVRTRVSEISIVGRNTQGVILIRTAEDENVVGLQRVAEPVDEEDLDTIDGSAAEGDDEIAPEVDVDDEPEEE

Pseudomonas aeruginosa = assay: Antibacterial activity against Pseudomonas aeruginosa ATCC 27853 after 16 to 24 hrs by CLSI method; assay type: functional
Escherichia coli = assay: Antibacterial activity against Escherichia coli ATCC 25922 after 16 to 24 hrs by broth microdilution method; assay type: functional
Staphylococcus aureus [5] = assay: Antibacterial activity against Staphylococcus aureus ATCC 29213 after 16 to 24 hrs by broth microdilution method; assay type: functional
Staphylococcus aureus [6] = assay: Antibacterial activity against Staphylococcus aureus BAA-1720 after 16 to 24 hrs by broth microdilution method; assay type: functional

Compound | IC50 (DNA gyrase subunit A [1]) [µM] | IC50 [2] [µM] | IC50 [3] [µM] | IC50 (DNA gyrase subunit A [4]) [µM] | MIC (Pseudomonas aeruginosa) [µg/mL] | MIC (Escherichia coli) [µg/mL] | MIC (Staphylococcus aureus [5]) [µg/mL] | MIC (Staphylococcus aureus [6]) [µg/mL]
O=c1cc(NC2CCN(CCCc3ccccc3)CC2)c2cc(Cl)ccc2o1 | 27.8 | 4.1 | 100 to 200 | > 800 |  |  |  | 
O=c1cc(N[C@H]2C[C@H](N3CCN(c4nccc5ccccc45)CC3)C2)c2ccccc2o1 | 5.6 | 2.6 | 11.6 | 2.1 |  |  |  | 
O=c1cc(N[C@H]2C[C@@H](N3CCN(c4nccc5ccccc45)CC3)C2)c2ccccc2o1 | 1.2 | 0.9 | > 100 | 1.1 |  |  |  | 
COc1ccc2ccnc(N3CCN(CCCNc4cc(=O)oc5ccccc45)CC3)c2c1 | 1.1 | 0.9 | 6.7 | 3.2 | 8 (≈ 18 µM) | 4 (≈ 9 µM) | 2 (≈ 4.5 µM) | 1 (≈ 2.25 µM)
O=C(NCCCN1CCN(c2nccc3ccccc23)CC1)c1ccccc1 | 20 | 130 | 489 | 112 |  | 256 (≈ 684 µM) | 16 (≈ 42.7 µM) | 32 (≈ 85.5 µM)
O=c1cc(NCCN2CCN(c3nccc4ccccc34)CC2)c2ccccc2o1 | 6.9 | 6.7 | > 100 |  |  |  |  | 
Cc1c(NCCCN2CCN(c3nccc4ccc(F)cc34)CC2)c2ccccc2oc1=O | 16.9 | 2.2 | > 100 | 1.3 |  |  |  | 
CN(C)c1ccc2ccnc(N3CCN(CCCNc4cc(=O)oc5ccccc45)CC3)c2c1 | 4.6 | 8.8 | 11.2 | 5.6 |  |  |  | 
Cc1cc2ccccc2c(N2CCN(CCCNc3cc(=O)oc4ccccc34)CC2)n1 | 33.1 |  | 7.5 | 4.8 |  |  |  | 
O=c1cc(NCCCN2CCN(c3nc(F)cc4ccccc34)CC2)c2ccccc2o1 | 2.6 | 1.9 | 7.1 | 0.9 | 4 (≈ 9.25 µM) | 4 (≈ 9.25 µM) | 4 (≈ 9.25 µM) | 2 (≈ 4.62 µM)
O=c1cc(NCCCN2CCN(c3nccc4ccccc34)CC2)c2ccccc2o1 | 14 | 10 | 90 | 0.5 | > 32 | 4 (≈ 9.65 µM) | > 32 | > 32
O=c1cc(NCCCN2CCN(c3nccc4ccccc34)CC2)c2cc(Cl)ccc2o1 | 5.2 | 1.2 | 5.5 | 0.6 | 4 (≈ 8.91 µM) | 0.5 (≈ 1.11 µM) | 8 (≈ 17.8 µM) | 4 (≈ 8.91 µM)
O=c1cc(NCC(O)CN2CCN(c3nccc4ncccc34)CC2)c2cc(F)ccc2o1 (racemic) | 1.1 | 0.2 | 0.3 | 0.15 | 8 (≈ 17.8 µM) | 2 (≈ 4.45 µM) | 4 (≈ 8.9 µM) | 4 (≈ 8.9 µM)
O=c1cc(OCCCN2CCN(c3nccc4ccccc34)CC2)c2ccccc2o1 | 28.3 | 22.6 | > 100 | 6.2 |  |  |  | 
O=c1cc(NCCCN2CCN(c3nccc4ccc(F)cc34)CC2)c2ccccc2o1 | 2.8 | 1.7 | 11.8 | 0.8 |  |  |  | 
O=c1cc(NCCCN2CCN(c3nccc4ccc(Cl)cc34)CC2)c2ccccc2o1 | 4.5 | 2.4 | 5.6 | 0.9 | 8 (≈ 17.8 µM) | 2 (≈ 4.45 µM) | 4 (≈ 8.91 µM) | 2 (≈ 4.45 µM)
O=c1nc(NC[C@@H](O)CN2CCN(c3nccc4ccc(F)cc34)CC2)c2ccccc2o1 | 0.6 | 0.4 | 0.3 | 1.5 | > 8 | 4 (≈ 8.9 µM) | 0.25 (≈ 0.556 µM) | 1 (≈ 2.22 µM)
O=c1cc(NCCCN2CCN(c3nccc4ccc(F)cc34)CC2)c2c(o1)CCSC2 | 1.3 | 8 | 15 | 1.3 |  |  |  | 

Compound | IC50 (DNA gyrase subunit A [1]) [µM] | IC50 [2] [µM] | IC50 [3] [µM] | IC50 (DNA gyrase subunit A [4]) [µM] | MIC (Pseudomonas aeruginosa) [µg/mL] | MIC (Escherichia coli) [µg/mL] | MIC (Staphylococcus aureus [5]) [µg/mL] | MIC (Staphylococcus aureus [6]) [µg/mL]
N#Cc1cc2ccccc2c(N2CCN(CCCNc3cc(=O)oc4ccccc34)CC2)n1 | 3.6 | 3.9 | > 100 | 5.6 |  |  |  | 
O=c1cc(NCCCN2CCN(c3nccc4ccccc34)CC2)c2c(o1)CCCC2 | 3.7 | 7.8 | 52.8 | 7.6 |  |  |  | 
Cc1cccc2oc(=O)cc(NCCCN3CCN(c4nccc5ccc(F)cc45)CC3)c12 | 2.1 | 3.1 | > 100 | 2.4 |  |  |  | 
O=c1cc(NCCCN2CCN(c3nccc4ncccc34)CC2)c2ccccc2o1 | 26.8 | 29.3 | 83.8 | 40.6 |  |  |  | 
O=c1cc(NCCCN2CCN(c3nc(Cl)cc4ccccc34)CC2)c2ccccc2o1 | 12.1 | 3.2 | 10.2 | 2.3 |  |  |  | 
O=c1cc(CC(O)CCN2CCN(c3nccc4ccc(F)cc34)CC2)c2ccccc2o1 (racemic) | 0.8 | 2.5 | 1.7 | 2.8 | > 8 | 8 (≈ 17.9 µM) | 1 (≈ 2.23 µM) | 4 (≈ 8.94 µM)
O=c1cc(NC[C@@H](O)CN2CCN(c3nccc4ccc(F)cc34)CC2)c2ccccc2o1 | 1.6 | 1.3 | 3 | 1.1 | 4 (≈ 8.92 µM) | 2 (≈ 4.46 µM) | 1 (≈ 2.23 µM) | 1 (≈ 2.23 µM)
O=c1cc(NCCCN2CCN(c3nccc4ccc(F)cc34)CC2)c2c(o1)CCS(=O)(=O)C2 | 7.8 | 52.5 | 2.1 | 2.9 |  |  |  | 
O=C1CN(c2nccc3ccccc23)CCN1CCCNc1cc(=O)oc2ccccc12 | > 100 | 28.5 | > 100 | 46.5 |  |  |  | 
O=C(CCN1CCN(c2nccc3ccc(F)cc23)CC1)Nc1cc(=O)oc2ccccc12 | 10.5 | 0.7 | 39.7 | 1.1 |  |  |  | 
O=c1cc(NCCCN2CCN(c3nccc4ccc(F)cc34)CC2)c2c(o1)CCOC2 | 19 | 59 | 4 | 6.3 |  |  |  | 
O=c1cc(NCCCN2CCN(c3nccc4ccc(F)cc34)CC2)c2c(o1)CCNC2 | 164 | 7.3 | > 100 | 22.8 |  |  |  | 
N#Cc1ccc2ccnc(N3CCN(CCCNc4cc(=O)oc5ccccc45)CC3)c2c1 | 6.8 | 1.7 | 5.1 | 2.3 | > 8 | 2 (≈ 4.55 µM) | 8 (≈ 18.2 µM) | 4 (≈ 9.1 µM)
O=c1cc(NC[C@H](O)CN2CCN(c3nccc4ccc(F)cc34)CC2)c2ccccc2o1 | 1.5 | 1.1 | 1.7 | 1.8 | 8 (≈ 17.8 µM) | 4 (≈ 8.92 µM) | 1 (≈ 2.23 µM) | 0.5 (≈ 1.11 µM)
CN(CCCN1CCN(c2nccc3ccccc23)CC1)c1cc(=O)oc2ccccc12 | 12.1 | 22.9 | > 100 | 31.7 |  |  |  | 
COc1cc2ccccc2c(N2CCN(CCCNc3cc(=O)oc4ccccc34)CC2)n1 | 43.3 | 2.4 | 137 | 66 |  |  |  | 
O=c1cc(NCCCN2CCN(c3nccc4ccccc34)CC2)c2cc(F)ccc2o1 | 3.9 | 1.3 | 3.1 | 1.2 |  | 0.5 (≈ 1.16 µM) | 4 (≈ 9.25 µM) | 2 (≈ 4.62 µM)
Cc1ccc2ccnc(N3CCN(CCCNc4cc(=O)oc5ccccc45)CC3)c2c1 | 9.6 | 3.8 | 52 | 2.6 |  |  |  | 
